The numbers were not newly measured in article doi:10.1101/2025.05.01.651722v1 (bioRxiv, 2025), which cites them from elsewhere.

For this data set the following is noted: solubility maintained by hydrophilic arginine tail.

No end group written: not given here.

In the case of H-RLTRKRGLKLAGGGGGRRRRRRRRR [ApoB^11], the “hydrophobicity of the peptide” value was “highly hydrophobic”.
